# Test results from patent US7355047B2, “Substituted quinolone carboxylic acids, their derivatives, site of action, and uses thereof” (The Regents of the University of California, priority 2002, dated 2008).
# What was measured:
# [1] = tested on: GABAA receptor complex (GRC); test: [35S]TBPS binding, rat cerebellum; details: 2 nM [35S]TBPS, 30 μM furosemide, FIG. 14
# [2] = biological target: T1, human GABAA receptors containing α2β2γ2 subunits (Homo sapiens, UniProt P18507+P47869+P47870); test: Electrophysiology Assay 2, GABAA subunit transfected HEK cells (α2β2γ2); assay type: cell-based; details: expressed human α2β2γ2 receptors; versus diazepam; FIG. 2
# T1 construct: expressed in transfected cells; host or cells: HEK cells
# Procedure: (§1) GABAA subunit transfected HEK cells are maintained at 37° C. and 5% CO2 using Dulbecco's Modified Eagle's Medium with L-glutamine and no sodium pyruvate (Irvine Scientific #9031, Irvine Calif.) and supplemented with 10% fetal bovine serum (Irvine Scientific #3000), 10 U/ml hygromycin B (Calbiochem #400051), and an antibiotic cocktail consisting of 100 μg/ml streptomycin sulfate, 0.25 μg/ml amphotericin B, 100 units/ml penicillin G (Gibco 15240-096, Gaithersburg Md.). Cells are passed by 2× wash with phosphate buffered saline (PBS) pH 7.4 and lifted using 1× trypsin/EDTA solution in PBS (0.5 mg/ml trypsin, 0.2 mg/ml EDTA, Irvine Scientific #9342) when confluency reaches ˜90%.
# (§2) GABAA subunit transfected HEK cells are grown to ˜70% confluency on slide. Cells are transferred to a bath that is continuously perfused with extracellular saline. The extracellular medium contained 145 mM NaCl, 3 mM KCl, 1.5 mM CaCl2, 1 mM MgCl2, 5.5 mM d-glucose, and 10 mM HEPES, pH 7.4 at an osmolarity of 320-330 mosM. Recordings are performed at room temperature using the whole cell patch clamp technique. The patch pipette solution contained 147 mM N-methyl-D-glucamine hydrochloride, 5 mM CsCl, 5 mM K2ATP, 5 mM HEPES, 1 mM MgCl2, 0.1 mM CaCl2, and 1.1 mM EGTA, pH 7.2, at an osmolarity of 315 mosM. Pipette-to-bath resistance is typically 3-5 Mohms. […]
# [3] = tested on: GABAA receptor complex (GRC); test: [35S]TBPS binding assay, rat cortex; details: 2 nM [35S]TBPS
# [4] = biological target: T2, human GABAA receptors containing α1β2γ2 subunits (Homo sapiens, UniProt P14867+P18507+P47870); test: Electrophysiology Assay 2, GABAA subunit transfected HEK cells (α1β2γ2); assay type: cell-based; details: expressed human α1β2γ2 receptors; versus diazepam; FIG. 2
# T2 construct: expressed in transfected cells; host or cells: HEK cells
# Procedure: as §1, §2
# [5] = tested on: GABAA receptor; test: [3H]Muscimol binding assay, rat cortex; details: 5 nM [3H]muscimol, FIG. 7
# Procedure: [^3H]Muscimol binding assay: The cortex from male Sprague-Dawley rats (160-200 g) was removed immediately after euthanizing and dissected over ice. The tissue was homogenized in 15 vol of 0.32M sucrose followed by centrifugation for 10 min at 1000× g. The supernatant was transferred to a 38 mL polycarbonate tube (Beckman Instruments, Palo Alto Calif.) and centrifuged at 20,000× g for 20 min. The membrane pellet was resuspended in 10 vol of dH2O and centrifuged at 8,000× g for 20 min. The resulting pellet was washed with dH2O once and with Na^+-free assay buffer (40 mM KH2PO4, 100 mM KCl, pH 7.4). The pellet was resuspended in 35 mL of Na^+-free assay buffer, incubated at 37° C. for thirty minutes and then centrifuged 31,000× g for twenty minutes. The final pellet was resuspended in 10 vol of Na^+-free assay buffer. Protein concentration of membrane preparations was ˜1 mg/mL by BCA reagent protein assay. Aliquots of membrane suspension (100 μL) were incubated in Na^+-free assay buffer with 5 nM [^3H]muscimol (25 Ci/mmol, New England Nuclear, Boston, Mass.) and 5 μL of dimethylsulfoxide (DMSO) or drug dissolved in DMSO. The final volume of the incubation medium was 1 mL. […] Filter-bound radioactivity was quantified by LSC after an overnight extraction. The data were evaluated by nonlinear regression to obtain IC50 and EC50 values.
# [6] = absence or presence of 3 μM and 10 μM (+)-bicuculline, FIG. 5
# T2 sequence (P14867 28-456): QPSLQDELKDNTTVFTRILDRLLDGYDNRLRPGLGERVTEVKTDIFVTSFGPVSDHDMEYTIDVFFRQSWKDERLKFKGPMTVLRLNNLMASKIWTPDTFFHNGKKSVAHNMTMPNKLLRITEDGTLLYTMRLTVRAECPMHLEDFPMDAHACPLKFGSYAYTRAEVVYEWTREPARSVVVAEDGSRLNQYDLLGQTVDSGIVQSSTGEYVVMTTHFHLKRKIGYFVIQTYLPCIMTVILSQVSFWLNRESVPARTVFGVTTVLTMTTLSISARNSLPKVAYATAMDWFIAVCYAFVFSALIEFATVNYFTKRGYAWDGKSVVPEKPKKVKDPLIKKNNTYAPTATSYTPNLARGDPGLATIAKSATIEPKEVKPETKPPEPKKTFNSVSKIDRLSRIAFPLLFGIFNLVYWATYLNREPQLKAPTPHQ
# T2 sequence (P47870 25-512 limits assumed): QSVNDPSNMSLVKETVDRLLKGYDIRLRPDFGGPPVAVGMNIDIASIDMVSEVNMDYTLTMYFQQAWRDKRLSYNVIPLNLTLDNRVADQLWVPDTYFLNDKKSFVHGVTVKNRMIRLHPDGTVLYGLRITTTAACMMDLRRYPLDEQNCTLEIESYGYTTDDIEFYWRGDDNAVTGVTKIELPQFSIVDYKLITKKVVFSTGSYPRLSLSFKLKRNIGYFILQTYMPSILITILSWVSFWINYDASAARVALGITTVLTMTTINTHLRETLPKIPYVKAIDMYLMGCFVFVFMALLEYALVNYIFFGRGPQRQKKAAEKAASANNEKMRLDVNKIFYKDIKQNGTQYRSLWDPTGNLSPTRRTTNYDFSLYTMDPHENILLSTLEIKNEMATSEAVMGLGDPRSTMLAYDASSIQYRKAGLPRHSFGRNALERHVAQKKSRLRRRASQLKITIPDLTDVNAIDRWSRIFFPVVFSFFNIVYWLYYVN
# T2 sequence (P18507 40-475): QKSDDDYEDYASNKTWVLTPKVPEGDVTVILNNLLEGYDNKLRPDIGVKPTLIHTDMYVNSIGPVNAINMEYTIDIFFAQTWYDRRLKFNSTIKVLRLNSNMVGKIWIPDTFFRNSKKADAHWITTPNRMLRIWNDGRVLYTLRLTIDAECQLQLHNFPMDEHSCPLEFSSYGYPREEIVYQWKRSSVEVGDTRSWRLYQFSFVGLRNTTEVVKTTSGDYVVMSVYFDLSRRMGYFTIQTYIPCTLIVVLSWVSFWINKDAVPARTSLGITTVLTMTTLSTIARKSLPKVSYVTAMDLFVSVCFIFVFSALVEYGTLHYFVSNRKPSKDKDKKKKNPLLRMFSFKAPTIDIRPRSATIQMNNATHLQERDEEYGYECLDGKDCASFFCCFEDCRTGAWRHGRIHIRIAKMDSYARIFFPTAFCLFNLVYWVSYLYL
# T1 sequence (P47869 29-451): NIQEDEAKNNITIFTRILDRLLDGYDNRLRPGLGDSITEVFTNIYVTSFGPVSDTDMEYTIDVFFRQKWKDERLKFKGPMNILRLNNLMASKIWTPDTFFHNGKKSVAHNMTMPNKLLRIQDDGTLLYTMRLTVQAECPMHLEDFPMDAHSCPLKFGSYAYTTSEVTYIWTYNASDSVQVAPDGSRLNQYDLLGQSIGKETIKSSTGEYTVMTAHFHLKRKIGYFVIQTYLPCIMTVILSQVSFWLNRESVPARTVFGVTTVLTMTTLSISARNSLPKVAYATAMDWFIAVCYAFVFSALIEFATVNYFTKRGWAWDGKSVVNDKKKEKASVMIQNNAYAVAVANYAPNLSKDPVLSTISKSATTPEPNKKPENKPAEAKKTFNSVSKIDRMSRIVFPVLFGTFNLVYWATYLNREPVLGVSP
# T1 sequence (P47870 25-512 limits assumed): as the sequence (P47870 25-512 limits assumed) above
# T1 sequence (P18507 40-475): as the sequence (P18507 40-475) above
smiles,measurement,setting,value
"CCn1cc(C(=O)O)c(=O)c2cc(NC3CCCc4ccccc43)c(Cl)cc21 (stereo not shown) [compound 3, 7-chloro-1-ethyl-6-(1,2,3,4-tetrahydronaphthyl-1-amino)-4-oxo-1,4-dihydroquinoline-3-carboxylic acid]",effect on [35S]TBPS binding in absence or presence of furosemide,[1],does not act directly at the same site on the GRC as the loop-diuretic furosemide
same,efficacy on GABA induced currents (IGABA),[2],dose-dependent positive efficacy
same,"interaction with 5α,20α-diol inhibition of [35S]TBPS binding (neurosteroid site)","[3]; 10 μM compound 3 or 100 nM 3α,5α-P, rat cortex, FIG. 8",does not act directly on the neurosteroid site of the GRC
same,effect on [35S]TBPS binding in absence or presence of norfloxacin,"[3]; 30 μM and 100 μM norfloxacin, rat cortex, FIG. 9",does not act directly at the same site as the antibacterial quinolone norfloxacin
same,effect on [35S]TBPS binding in absence or presence of Ro5-4864 (4′-chlorodiazepam),"[3]; 0.3, 1 and 30 μM Ro5-4864, rat cortex, FIG. 11",does not act directly at the same site as 4′-chlorodiazepam
same,dependence on GABA of the effect on [35S]TBPS binding,[3]; [6],absolute dependence of compound 3 on GABA for efficacy
same,site of action relative to the [35S]TBPS site,[3]; [6],allosterically coupled to and does not act directly on the [^35S]TBPS site
same,dissociation of [35S]TBPS binding in absence or presence of pentobarbital,"[3]; initiated by 10 μM compound 3, 30 μM pentobarbital, rat cortex, FIG. 10",do not share a common site of action
same,efficacy on GABA induced currents (IGABA),[4],dose-dependent positive efficacy
same,effect on [3H]muscimol binding to the GABAA receptor,[5],does not act directly on the GABAA receptor
